Legend:
Test in all cases: Greenhouse herbicidal activity assay, post-emergence
Format in all cases: in vivo
Cyperus iria = conditions: Post-emergence test, rate 150 g a.i./hm^2, grade by fresh weight inhibition rate; for pest or weed control at 150 g/ha: Cyperus iria, read-out: Control efficacy grade, Cyperus iria
From the text: (§1) Post-emergence: Seeds of gramineous weeds (Echinochloa crusgalli, Echinochloa crusgalli var. zelayensis, Echinochloa phyllopogon, Eleusine indica, Digitaria sanguinalis, Leptochloa chinensis, Setaria viridis, Alopecurus japonicus Steud, Beckmannia syzigachne, Polypogon fugax, Alopecurus aequalis, Lolium multiflorum, Poa annua, Aegilops tataschii, Avena fatua, Alopecurus myosuroides, Bromus japonicus), broadleaf weeds (Eclipta prostrata, Amaranthus retroflexus, Rorippa indica, Myosoton aquaticum, Veronica didyma, Galium aparine, Solanum nigrum, Xanthium sibiricum, Conyza canadensis, Sesbania cannabina, Sagittaria trifolia), and Cyperus iria (Cyperus iria, Scirpus juncoides, Cyperus difformis, etc.) were sown in plastic pots (7 cm diameter) with nutrient soil and bottom holes. Crop seeds (including Oryza sativa subsp. indica, Oryza sativa subsp. japonica, Oryza sativa L. var. Glutinosa matsum, Triticum aestivum, Zea mays, Sorghum bicolor, Setaria italica, Glycine max, Gossypium hirsutum, Brassica napus, Arachis hypogaea) were sown in plastic pots (10 cm diameter) with nutrient soil and bottom holes. After sowing, the pots were placed in the growth chamber until the plants reached the 3-6 leaf stage for foliar spraying. Post-treatment, the materials were air-dried naturally and returned to the growth chamber. Results were assessed 14-21 days later.
(§2) • A: Fresh weight inhibition rate≥80% to 100%; • B: Fresh weight inhibition rate[…] to <80%; • C: Fresh weight inhibition rate≥40% to <60%; • D: Fresh weight inhibition rate≥20% to <40%; • E: Fresh weight inhibition rate<20%; • NT: Not tested.

Leptochloa chinensis = conditions: Post-emergence test, rate 150 g a.i./hm^2; grade by fresh weight inhibition rate
From the text: as §1, §2

Eclipta prostrata = conditions: Post-emergence test, rate 150 g a.i./hm^2, grade by fresh weight inhibition rate; for pest or weed control at 150 g/ha: Eclipta prostrata, read-out: Control efficacy grade, Eclipta prostrata
From the text: as §1, §2

Echinochloa crusgalli = conditions: Post-emergence test, rate 150 g a.i./hm^2; grade by fresh weight inhibition rate
From the text: as §1, §2

Structure (SMILES): CCC(C)[S+]([O-])c1c(S(C)(=O)=O)ccc(C(=O)Nc2nnc(C(C)C)o2)c1Cl (mixture of isomers) [Compound 3-517]
- Control efficacy grade, Cyperus iria (Cyperus iria): B (Fresh weight inhibition rate≥260% to <80%)
- Control efficacy grade, Leptochloa chinensis (Leptochloa chinensis): A (Fresh weight inhibition rate≥80% to 100%)
- Control efficacy grade, Eclipta prostrata (Eclipta prostrata): A (Fresh weight inhibition rate≥80% to 100%)

Structure (SMILES): CCC(C)[S+]([O-])c1c(S(C)(=O)=O)ccc(C(=O)N(C)c2nnc(C)o2)c1Cl (mixture of isomers) [Compound 3-820]
- Control efficacy grade, Echinochloa crusgalli (Echinochloa crusgalli): A (Fresh weight inhibition rate≥80% to 100%)

Structure (SMILES): CCC(C)[S+]([O-])c1c(S(C)(=O)=O)ccc(C(=O)Nc2nonc2C)c1Cl (mixture of isomers) [Compound 4-19]
- Control efficacy grade, Cyperus iria (Cyperus iria): A (Fresh weight inhibition rate≥80% to 100%)
- Control efficacy grade, Leptochloa chinensis (Leptochloa chinensis): A (Fresh weight inhibition rate≥80% to 100%)
- Control efficacy grade, Eclipta prostrata (Eclipta prostrata): A (Fresh weight inhibition rate≥80% to 100%)

Structure (SMILES): CCC(C)Sc1c(S(C)(=O)=O)ccc(C(=O)Nc2ncnn2C)c1Cl (racemic) [Compound 2-16]
- Control efficacy grade, Cyperus iria (Cyperus iria): A (Fresh weight inhibition rate≥80% to 100%)
- Control efficacy grade, Leptochloa chinensis (Leptochloa chinensis): A (Fresh weight inhibition rate≥80% to 100%)
- Control efficacy grade, Eclipta prostrata (Eclipta prostrata): A (Fresh weight inhibition rate≥80% to 100%)

Structure (SMILES): CCC[S+]([O-])c1c(S(C)(=O)=O)ccc(C(=O)N(C)c2ncnn2C)c1Cl (racemic) [Compound 2-78]
- Control efficacy grade, Echinochloa crusgalli (Echinochloa crusgalli): A (Fresh weight inhibition rate≥80% to 100%)

Structure (SMILES): C#CC[S+]([O-])c1c(S(C)(=O)=O)ccc(C(=O)Nc2nnc(C)o2)c1Cl (racemic) [Compound 3-148]
- Control efficacy grade, Leptochloa chinensis (Leptochloa chinensis): A (Fresh weight inhibition rate≥80% to 100%)

Structure (SMILES): Cc1nnc(NC(=O)c2ccc(S(C)(=O)=O)c([S+]([O-])CC(F)(F)C(F)(F)F)c2Cl)o1 (racemic) [Compound 3-173]
- Control efficacy grade, Leptochloa chinensis (Leptochloa chinensis): A (Fresh weight inhibition rate≥80% to 100%)

Structure (SMILES): Cc1nnc(NC(=O)c2ccc(S(C)(=O)=O)c([S+]([O-])CCC#N)c2Cl)o1 (racemic) [Compound 3-198]
- Control efficacy grade, Cyperus iria (Cyperus iria): A (Fresh weight inhibition rate≥80% to 100%)
- Control efficacy grade, Leptochloa chinensis (Leptochloa chinensis): A (Fresh weight inhibition rate≥80% to 100%)
- Control efficacy grade, Eclipta prostrata (Eclipta prostrata): A (Fresh weight inhibition rate≥80% to 100%)

Structure (SMILES): CC(C)c1nnc(NC(=O)c2ccc(S(C)(=O)=O)c([S+]([O-])C(C)C)c2Cl)o1 (racemic) [Compound 3-505]
- Control efficacy grade, Cyperus iria (Cyperus iria): A (Fresh weight inhibition rate≥80% to 100%)
- Control efficacy grade, Leptochloa chinensis (Leptochloa chinensis): A (Fresh weight inhibition rate≥80% to 100%)
- Control efficacy grade, Eclipta prostrata (Eclipta prostrata): A (Fresh weight inhibition rate≥80% to 100%)

Structure (SMILES): C=CC[S+]([O-])c1c(S(C)(=O)=O)ccc(C(=O)Nc2nnc(C(C)C)o2)c1Cl (racemic) [Compound 3-571]
- Control efficacy grade, Cyperus iria (Cyperus iria): A (Fresh weight inhibition rate≥80% to 100%)
- Control efficacy grade, Eclipta prostrata (Eclipta prostrata): A (Fresh weight inhibition rate≥80% to 100%)

Structure (SMILES): CC(C)c1nnc(N(C)C(=O)c2ccc(S(C)(=O)=O)c([S+]([O-])C(C)C)c2Cl)o1 (racemic) [Compound 3-808]
- Control efficacy grade, Echinochloa crusgalli (Echinochloa crusgalli): B (Fresh weight inhibition rate≥260% to <80%)

Structure (SMILES): CC(C)[S+]([O-])c1c(S(C)(=O)=O)ccc(C(=O)N(C)c2nnc(C3CC3)o2)c1Cl (racemic) [Compound 3-809]
- Control efficacy grade, Echinochloa crusgalli (Echinochloa crusgalli): B (Fresh weight inhibition rate≥260% to <80%)

Structure (SMILES): CCc1nnc(N(C)C(=O)c2ccc(S(C)(=O)=O)c([S+]([O-])C3CC3)c2Cl)o1 (racemic) [Compound 3-813]
- Control efficacy grade, Cyperus iria (Cyperus iria): B (Fresh weight inhibition rate≥260% to <80%)
- Control efficacy grade, Leptochloa chinensis (Leptochloa chinensis): B (Fresh weight inhibition rate≥260% to <80%)
- Control efficacy grade, Eclipta prostrata (Eclipta prostrata): A (Fresh weight inhibition rate≥80% to 100%)

Structure (SMILES): CCCC[S+]([O-])c1c(S(C)(=O)=O)ccc(C(=O)N(C)c2nnc(C)o2)c1Cl (racemic) [Compound 3-815]
- Control efficacy grade, Echinochloa crusgalli (Echinochloa crusgalli): B (Fresh weight inhibition rate≥260% to <80%)

Structure (SMILES): CCC(C)Sc1c(S(C)(=O)=O)ccc(C(=O)Nc2nonc2C)c1Cl (racemic) [Compound 4-16]
- Control efficacy grade, Cyperus iria (Cyperus iria): A (Fresh weight inhibition rate≥80% to 100%)

Structure (SMILES): CCCS(=O)(=O)c1c(S(C)(=O)=O)ccc(C(=O)N(C)c2nnnn2C)c1Cl [Compound 1-101]
- Control efficacy grade, Leptochloa chinensis (Leptochloa chinensis): B (Fresh weight inhibition rate≥260% to <80%)
- Control efficacy grade, Eclipta prostrata (Eclipta prostrata): A (Fresh weight inhibition rate≥80% to 100%)

Structure (SMILES): Cn1ncnc1NC(=O)c1ccc(S(C)(=O)=O)c(SC2CCCC2)c1Cl [Compound 2-42]
- Control efficacy grade, Cyperus iria (Cyperus iria): A (Fresh weight inhibition rate≥80% to 100%)
- Control efficacy grade, Leptochloa chinensis (Leptochloa chinensis): A (Fresh weight inhibition rate≥80% to 100%)
- Control efficacy grade, Eclipta prostrata (Eclipta prostrata): A (Fresh weight inhibition rate≥80% to 100%)

Structure (SMILES): Cc1nnc(NC(=O)c2ccc(S(C)(=O)=O)c(SCc3ccccc3)c2Cl)o1 [Compound 3-67]
- Control efficacy grade, Cyperus iria (Cyperus iria): A (Fresh weight inhibition rate≥80% to 100%)

Structure (SMILES): Cc1nnc(NC(=O)c2ccc(S(C)(=O)=O)c(SC3CCCCC3)c2Cl)o1 [Compound 3-92]
- Control efficacy grade, Cyperus iria (Cyperus iria): A (Fresh weight inhibition rate≥80% to 100%)

Structure (SMILES): CCCCS(=O)(=O)c1c(S(C)(=O)=O)ccc(C(=O)Nc2nnco2)c1Cl [Compound 3-281]
- Control efficacy grade, Cyperus iria (Cyperus iria): A (Fresh weight inhibition rate≥80% to 100%)
- Control efficacy grade, Leptochloa chinensis (Leptochloa chinensis): A (Fresh weight inhibition rate≥80% to 100%)
- Control efficacy grade, Eclipta prostrata (Eclipta prostrata): A (Fresh weight inhibition rate≥80% to 100%)

Structure (SMILES): CC(C)CS(=O)(=O)c1c(S(C)(=O)=O)ccc(C(=O)Nc2nnco2)c1Cl [Compound 3-297]
- Control efficacy grade, Cyperus iria (Cyperus iria): A (Fresh weight inhibition rate≥80% to 100%)
- Control efficacy grade, Leptochloa chinensis (Leptochloa chinensis): B (Fresh weight inhibition rate≥260% to <80%)
- Control efficacy grade, Eclipta prostrata (Eclipta prostrata): A (Fresh weight inhibition rate≥80% to 100%)

Structure (SMILES): CS(=O)(=O)c1ccc(C(=O)Nc2nnco2)c(Cl)c1S(=O)(=O)CCCl [Compound 3-382]
- Control efficacy grade, Leptochloa chinensis (Leptochloa chinensis): A (Fresh weight inhibition rate≥80% to 100%)

Structure (SMILES): CCCCSc1c(S(C)(=O)=O)ccc(C(=O)Nc2nnc(CC)o2)c1Cl [Compound 3-393]
- Control efficacy grade, Cyperus iria (Cyperus iria): A (Fresh weight inhibition rate≥80% to 100%)
- Control efficacy grade, Leptochloa chinensis (Leptochloa chinensis): B (Fresh weight inhibition rate≥260% to <80%)

Structure (SMILES): CCCCS(=O)(=O)c1c(S(C)(=O)=O)ccc(C(=O)Nc2nnc(CC)o2)c1Cl [Compound 3-397]
- Control efficacy grade, Cyperus iria (Cyperus iria): A (Fresh weight inhibition rate≥80% to 100%)
- Control efficacy grade, Eclipta prostrata (Eclipta prostrata): A (Fresh weight inhibition rate≥80% to 100%)

Structure (SMILES): CCc1nnc(NC(=O)c2ccc(S(C)(=O)=O)c(S(=O)(=O)CC(C)C)c2Cl)o1 [Compound 3-413]
- Control efficacy grade, Cyperus iria (Cyperus iria): A (Fresh weight inhibition rate≥80% to 100%)
- Control efficacy grade, Leptochloa chinensis (Leptochloa chinensis): A (Fresh weight inhibition rate≥80% to 100%)
- Control efficacy grade, Eclipta prostrata (Eclipta prostrata): A (Fresh weight inhibition rate≥80% to 100%)

Structure (SMILES): CCc1nnc(NC(=O)c2ccc(S(C)(=O)=O)c(S(=O)(=O)CCCl)c2Cl)o1 [Compound 3-498]
- Control efficacy grade, Leptochloa chinensis (Leptochloa chinensis): A (Fresh weight inhibition rate≥80% to 100%)

Structure (SMILES): CCCSc1c(S(C)(=O)=O)ccc(C(=O)Nc2nnc(C(C)C)o2)c1Cl [Compound 3-499, 2-chloro-N-(5-isopropyl-1,3,4-oxadiazol-2-yl)-4-(methylsulfonyl)-3-(propylthio)benzamide]
- pest or weed control at 150 g/ha (Cyperus iria): 80 to 100%

Structure (SMILES): C=CCSc1c(S(C)(=O)=O)ccc(C(=O)Nc2nnc(C(C)C)o2)c1Cl [Compound 3-570]
- Control efficacy grade, Cyperus iria (Cyperus iria): A (Fresh weight inhibition rate≥80% to 100%)
- Control efficacy grade, Leptochloa chinensis (Leptochloa chinensis): B (Fresh weight inhibition rate≥260% to <80%)
- Control efficacy grade, Eclipta prostrata (Eclipta prostrata): A (Fresh weight inhibition rate≥80% to 100%)

Structure (SMILES): CCCS(=O)(=O)c1c(S(C)(=O)=O)ccc(C(=O)Nc2nonc2C)c1Cl [Compound 4-5, 2-chloro-N-(4-methyl-1,2,5-oxadiazol-3-yl)-4-(methylsulfonyl)-3-(propylsulfonyl)benzamide]
- pest or weed control at 150 g/ha (Cyperus iria): 80 to 100%
- pest or weed control at 150 g/ha (Eclipta prostrata): 80 to 100%

Structure (SMILES): Cc1nonc1NC(=O)c1ccc(S(C)(=O)=O)c(SC(C)C)c1Cl [Compound 4-6]
- Control efficacy grade, Leptochloa chinensis (Leptochloa chinensis): A (Fresh weight inhibition rate≥80% to 100%)

Structure (SMILES): Cc1nonc1NC(=O)c1ccc(S(C)(=O)=O)c(SCC2CC2)c1Cl [Compound 4-32, 2-chloro-3-((cyclopropylmethyl)thio)-N-(4-meth 1-1,2,5-oxadiazol-3-yl)-4-(methylsulfonyl)benzamide]
- pest or weed control at 150 g/ha (Cyperus iria): 80 to 100%

Structure (SMILES): Cc1nonc1NC(=O)c1ccc(S(C)(=O)=O)c(S(=O)(=O)CC2CC2)c1Cl [Compound 4-36, 2-chloro-3-((cyclopropylmethyl)sulfonyl)-N-(4-methyl-1,2,5-oxadiazol-3-yl)-4-(methylsulfonyl)benzamide]
- pest or weed control at 150 g/ha (Cyperus iria): 80 to 100%

Structure (SMILES): CCC[S+]([O-])c1c(S(C)(=O)=O)ccc(C(=O)N(C)c2nonc2C)c1Cl (stereo not shown) [Compound 4-272, 2-chloro-N-methyl-N-(4-methyl-1,2,5-oxadiazol-3-yl)-4-(methylsulfonyl)-3-(propylsulfinyl)benzamide]
- pest or weed control at 150 g/ha (Cyperus iria): 80 to 100%
- pest or weed control at 150 g/ha (Eclipta prostrata): 80 to 100%
